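Compound exposure: 48 hours, 5 concentrations, 96-well plates. The concentration for 50% growth inhibition is given as GI50. TGI: total growth inhibition.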
Tests used:
Experiment in all cases: growth of human tumour cells (NCI), 48 h
HS 578T breast = system: HS 578T breast
COLO 205 colon = system: COLO 205 colon
MCF7 breast = system: MCF7 breast
A549 NSCLC = system: A549 NSCLC
SF-268 CNS = system: SF-268 CNS
U251 CNS = system: U251 CNS
HL-60(TB) leukemia = system: HL-60(TB) leukemia
DU-145 prostate = system: DU-145 prostate
K-562 leukemia = system: K-562 leukemia
PC-3 prostate = system: PC-3 prostate
MDA-MB-231 breast = system: MDA-MB-231 breast
MDA-MB-435 = system: MDA-MB-435
NCI-H23 lung = system: NCI-H23 lung
LOX IMVI melanoma = system: LOX IMVI melanoma
CCRF-CEM leukemia = system: CCRF-CEM leukemia
SK-OV-3 ovarian = system: SK-OV-3 ovarian
OVCAR-5 ovarian = system: OVCAR-5 ovarian
HOP-62 NSCLC = system: HOP-62 NSCLC
SF-539 CNS = system: SF-539 CNS
MALME-3M melanoma = system: MALME-3M melanoma
SF-295 CNS = system: SF-295 CNS
SK-MEL-5 melanoma = system: SK-MEL-5 melanoma
SNB-75 CNS = system: SNB-75 CNS
MOLT-4 leukemia = system: MOLT-4 leukemia
KM12 colon = system: KM12 colon
SNB-19 CNS = system: SNB-19 CNS
SK-MEL-28 melanoma = system: SK-MEL-28 melanoma
CAKI-1 renal = system: CAKI-1 renal
SN12C renal = system: SN12C renal
UACC-257 melanoma = system: UACC-257 melanoma
HCC-2998 colon = system: HCC-2998 colon
OVCAR-8 ovarian = system: OVCAR-8 ovarian
HCT-15 colon = system: HCT-15 colon
OVCAR-3 ovarian = system: OVCAR-3 ovarian
NCI-H522 lung = system: NCI-H522 lung
M14 melanoma = system: M14 melanoma
OVCAR-4 ovarian = system: OVCAR-4 ovarian
RPMI-8226 leukemia = system: RPMI-8226 leukemia
UO-31 renal = system: UO-31 renal
EKVX NSCLC = system: EKVX NSCLC
ACHN renal = system: ACHN renal
SW-620 colon = system: SW-620 colon
NCI/ADR-RES ovarian = system: NCI/ADR-RES ovarian
IGROV1 ovarian = system: IGROV1 ovarian
HOP-92 NSCLC = system: HOP-92 NSCLC
TK-10 renal = system: TK-10 renal
A498 renal = system: A498 renal
NCI-H226 lung = system: NCI-H226 lung
786-0 renal = system: 786-0 renal
SK-MEL-2 melanoma = system: SK-MEL-2 melanoma
RXF 393 renal = system: RXF 393 renal
NCI-H460 lung = system: NCI-H460 lung
HT29 colon = system: HT29 colon
HCT-116 colon = system: HCT-116 colon
UACC-62 melanoma = system: UACC-62 melanoma
BT-549 breast = system: BT-549 breast
SR leukemia = system: SR leukemia
T-47D breast = system: T-47D breast

With COC(=O)[C@@H](C[C@H](Cc1ccccc1)NC(=O)c1csc([C@@H](C[C@H](C(C)C)N(C)C(=O)[C@@H](NC(=O)[C@H]2CCCCN2C)C(C)C)OC(C)=O)n1)NC(=O)OCc1ccccc1 the GI50 (HS 578T breast) was less than 0.833 nM, the TGI (HS 578T breast) was greater than 3550 nM and the GI50 (COLO 205 colon) was less than 0.833 nM. For the same compound, the GI50 (MCF7 breast) was less than 0.833 nM, the TGI (MCF7 breast) was greater than 8330 nM and the GI50 (A549 NSCLC) was 1.86 nM. The TGI (A549 NSCLC) was greater than 8330 nM, the GI50 (SF-268 CNS) was 1.37 nM and the TGI (SF-268 CNS) was greater than 8330 nM. The GI50 (U251 CNS) was less than 0.833 nM, the TGI (U251 CNS) was greater than 2650 nM and the GI50 (HL-60(TB) leukemia) was less than 0.833 nM. It also gave a TGI (HL-60(TB) leukemia) of 1.62 nM, a GI50 (DU-145 prostate) of less than 0.833 nM and a GI50 (K-562 leukemia) of less than 0.833 nM. It also gave a TGI (K-562 leukemia) greater than 3180 nM, a GI50 (PC-3 prostate) of less than 0.833 nM and a TGI (PC-3 prostate) greater than 8330 nM. It also gave a GI50 (MDA-MB-231 breast) of 1.31 nM, a TGI (MDA-MB-231 breast) greater than 6730 nM and a GI50 (MDA-MB-435) of less than 0.833 nM. It also gave a TGI (MDA-MB-435) of less than 0.833 nM, a GI50 (NCI-H23 lung) of 1.19 nM and a TGI (NCI-H23 lung) greater than 8330 nM. For the same compound, the GI50 (LOX IMVI melanoma) was less than 0.833 nM, the TGI (LOX IMVI melanoma) was greater than 8330 nM and the GI50 (CCRF-CEM leukemia) was less than 0.833 nM. For the same compound, the TGI (CCRF-CEM leukemia) was greater than 7920 nM, the GI50 (SK-OV-3 ovarian) was 2.65 nM and the TGI (SK-OV-3 ovarian) was greater than 8330 nM. The GI50 (OVCAR-5 ovarian) was 5.38 nM, the TGI (OVCAR-5 ovarian) was greater than 8330 nM and the GI50 (HOP-62 NSCLC) was 1.12 nM. For the same compound, the TGI (HOP-62 NSCLC) was greater than 8330 nM, the GI50 (SF-539 CNS) was less than 0.833 nM and the TGI (SF-539 CNS) was 3.85 nM. It also gave a GI50 (MALME-3M melanoma) of less than 0.833 nM, a TGI (MALME-3M melanoma) of 2680 nM and a GI50 (SF-295 CNS) of 1.33 nM. It also gave a TGI (SF-295 CNS) greater than 8330 nM, a GI50 (SK-MEL-5 melanoma) of less than 0.833 nM and a TGI (SK-MEL-5 melanoma) of 38.6 nM. It also gave a GI50 (SNB-75 CNS) of less than 0.833 nM, a TGI (SNB-75 CNS) greater than 8330 nM and a GI50 (MOLT-4 leukemia) of less than 0.833 nM. It also gave a TGI (MOLT-4 leukemia) greater than 8330 nM, a GI50 (KM12 colon) of less than 0.833 nM and a TGI (KM12 colon) greater than 8330 nM. The GI50 (SNB-19 CNS) was less than 0.833 nM, the TGI (SNB-19 CNS) was greater than 8330 nM and the GI50 (SK-MEL-28 melanoma) was 906 nM. It also gave a TGI (SK-MEL-28 melanoma) of 2390 nM, a GI50 (CAKI-1 renal) of 1.66 nM and a TGI (CAKI-1 renal) greater than 8330 nM. For the same compound, the GI50 (SN12C renal) was 1.46 nM, the TGI (SN12C renal) was greater than 8330 nM and the GI50 (UACC-257 melanoma) was 30.9 nM. It also gave a TGI (UACC-257 melanoma) of 2590 nM, a GI50 (HCC-2998 colon) of less than 0.833 nM and a TGI (HCC-2998 colon) greater than 2890 nM. For the same compound, the GI50 (OVCAR-8 ovarian) was less than 0.833 nM, the TGI (OVCAR-8 ovarian) was greater than 8330 nM and the GI50 (HCT-15 colon) was 4.54 nM. For the same compound, the TGI (HCT-15 colon) was greater than 8330 nM, the GI50 (OVCAR-3 ovarian) was less than 0.833 nM and the GI50 (NCI-H522 lung) was less than 0.833 nM. It also gave a TGI (NCI-H522 lung) of 40 nM, a GI50 (M14 melanoma) of less than 0.833 nM and a TGI (M14 melanoma) of 412 nM. The GI50 (OVCAR-4 ovarian) was 7.17 nM, the TGI (OVCAR-4 ovarian) was greater than 8330 nM and the GI50 (RPMI-8226 leukemia) was less than 0.833 nM. It also gave a TGI (RPMI-8226 leukemia) of 2490 nM, a GI50 (UO-31 renal) of 11.3 nM and a TGI (UO-31 renal) greater than 8330 nM. The GI50 (EKVX NSCLC) was 17.5 nM, the TGI (EKVX NSCLC) was greater than 8330 nM and the GI50 (ACHN renal) was 2.93 nM. It also gave a TGI (ACHN renal) greater than 8330 nM, a GI50 (SW-620 colon) of less than 0.833 nM and a TGI (SW-620 colon) greater than 8330 nM. For the same compound, the GI50 (NCI/ADR-RES ovarian) was 43.9 nM, the TGI (NCI/ADR-RES ovarian) was greater than 1690 nM and the GI50 (IGROV1 ovarian) was less than 0.833 nM. The TGI (IGROV1 ovarian) was greater than 7680 nM, the GI50 (HOP-92 NSCLC) was 2.36 nM and the TGI (HOP-92 NSCLC) was greater than 8330 nM. It also gave a GI50 (TK-10 renal) of 107 nM, a TGI (TK-10 renal) greater than 8330 nM and a GI50 (A498 renal) of 1.1 nM. The TGI (A498 renal) was 10.4 nM, the GI50 (NCI-H226 lung) was 1.68 nM and the TGI (NCI-H226 lung) was 136 nM. It also gave a GI50 (786-0 renal) of 1.65 nM, a TGI (786-0 renal) greater than 8330 nM and a GI50 (SK-MEL-2 melanoma) of less than 0.833 nM. For the same compound, the TGI (SK-MEL-2 melanoma) was 3450 nM, the GI50 (RXF 393 renal) was 0.948 nM and the TGI (RXF 393 renal) was greater than 8330 nM. For the same compound, the GI50 (NCI-H460 lung) was less than 0.833 nM, the TGI (NCI-H460 lung) was greater than 8330 nM and the GI50 (HT29 colon) was less than 0.833 nM. The TGI (HT29 colon) was greater than 8330 nM, the GI50 (HCT-116 colon) was less than 0.833 nM and the GI50 (UACC-62 melanoma) was less than 0.833 nM. For the same compound, the TGI (UACC-62 melanoma) was greater than 8330 nM, the GI50 (BT-549 breast) was 1.49 nM and the TGI (BT-549 breast) was 83.9 nM. For the same compound, the GI50 (SR leukemia) was less than 0.833 nM and the TGI (SR leukemia) was greater than 3400 nM.
CCCCOC(=O)NC(Nc1ccc(S(N)(=O)=O)cc1)(C(F)(F)F)C(F)(F)F was tested, and the TGI (HS 578T breast) was greater than 100000 nM, the TGI (MCF7 breast) was greater than 100000 nM and the TGI (SF-268 CNS) was greater than 100000 nM. The TGI (U251 CNS) was greater than 100000 nM, the TGI (HL-60(TB) leukemia) was greater than 100000 nM and the TGI (DU-145 prostate) was greater than 100000 nM. It also gave a TGI (K-562 leukemia) greater than 100000 nM, a TGI (MDA-MB-231 breast) greater than 100000 nM and a TGI (MDA-MB-435) greater than 100000 nM. It also gave a TGI (NCI-H23 lung) greater than 100000 nM, a TGI (LOX IMVI melanoma) greater than 100000 nM and a TGI (CCRF-CEM leukemia) greater than 100000 nM. For the same compound, the TGI (SK-OV-3 ovarian) was greater than 100000 nM, the TGI (OVCAR-5 ovarian) was greater than 100000 nM and the TGI (HOP-62 NSCLC) was greater than 100000 nM. The TGI (SF-539 CNS) was greater than 100000 nM, the TGI (MALME-3M melanoma) was greater than 100000 nM and the TGI (SNB-75 CNS) was greater than 100000 nM. For the same compound, the TGI (MOLT-4 leukemia) was greater than 100000 nM, the TGI (KM12 colon) was greater than 100000 nM and the TGI (SNB-19 CNS) was greater than 100000 nM. The TGI (SK-MEL-28 melanoma) was greater than 100000 nM, the TGI (SN12C renal) was greater than 100000 nM and the TGI (UACC-257 melanoma) was greater than 100000 nM. It also gave a TGI (T-47D breast) greater than 100000 nM, a TGI (HCC-2998 colon) greater than 100000 nM and a TGI (HCT-15 colon) greater than 100000 nM. For the same compound, the TGI (OVCAR-3 ovarian) was greater than 100000 nM, the TGI (NCI-H522 lung) was greater than 100000 nM and the TGI (M14 melanoma) was greater than 100000 nM. For the same compound, the TGI (RPMI-8226 leukemia) was greater than 100000 nM, the TGI (UO-31 renal) was greater than 100000 nM and the TGI (EKVX NSCLC) was greater than 100000 nM. For the same compound, the TGI (ACHN renal) was greater than 100000 nM, the TGI (TK-10 renal) was greater than 100000 nM and the TGI (A498 renal) was greater than 100000 nM. It also gave a TGI (NCI-H226 lung) greater than 100000 nM, a TGI (SK-MEL-2 melanoma) greater than 100000 nM and a TGI (RXF 393 renal) greater than 100000 nM. For the same compound, the TGI (NCI-H460 lung) was greater than 100000 nM, the TGI (HT29 colon) was greater than 100000 nM and the TGI (HCT-116 colon) was greater than 100000 nM. The TGI (UACC-62 melanoma) was greater than 100000 nM, the TGI (BT-549 breast) was greater than 100000 nM and the TGI (SR leukemia) was greater than 100000 nM.
